# Experiments:
# Anopheles albimanus = assay: Olfactometer attraction test of compounds and compositions; format: in vivo;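 further: olfactometer with a treatment port and a matching control port using identical delivery device and conditions, both opened together, three tests per battery, each run in its own cage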
# Aedes aegypti = assay: Olfactometer attraction test, treatment port vs control port, approximately 75 female mosquitoes; format: in vivo; conditions: for Δ [(Resp with LA) − Resp] (%): difference between response with L-lactic acid and response alone; for Response with Ace (%): base compound together with acetone; for Δ [(Resp with Ace) − Resp] (%): difference between response with acetone and response alone; for caught in CK (check or control port): compound alone 500 μL in treatment port
# Procedure: The tests were conducted in an olfactometer (55 ft^3/min airflow, 80° F., 60% R.H.) as described by Posey, J. Med. Entomol., 35, 330-334 (1998); and LA is lactic acid. Mosquitoes were allowed to settle at least one hour prior to testing. The olfactometer was cleaned after each battery of tests. Each battery consisted of three tests, conducted at 08:30, 11:00 and 13:00 hours local time. Each of the three tests was conducted in a separate cage. The control consisted of identical sample delivery devices and conditions compared to that of the treatment side. Both the treatment and control ports were opened and closed simultaneously when inserting a new treatment/control.
# [1] = compound 500 μL together with L-lactic acid
# [2] = compound alone, high dose of 500 μL
# [3] = base compound alone (mode of action similar to lactic acid)
# [4] = single compound, dose 500 (μL), 60 mL glass petri dish, Aedes aegypti attraction
# [5] = no Base, Activator1 dose 500, 60 mL glass petri dish
SMILES,"% caught (Anopheles albimanus; single treatment, 500 μL)",Response with L-LA (%) (Aedes aegypti; [1]),Response (%) (Aedes aegypti; [2]),Δ [(Resp with LA) − Resp] (%) (Aedes aegypti),also measured
O=C(O)CC(O)C(=O)O (racemic) [DL-Malic Acid],–,–,–,–,"% caught (Anopheles albimanus; single substance, Crys dish (crystalline solid)): 0.0%"
"CC(Cl)(Cl)Cl [1,1,1-Trichloroethane]",61.0%,–,–,–,–
"ClCC(Cl)Cl [1,1,2-Trichloroethane]",64.4%,–,–,–,–
"O=C(CCl)C(Cl)Cl [1,1,3-Trichloroacetone]",5.6%,–,–,–,–
CN1CCNCC1 [1-Methylpiperazine],1.3%,–,–,–,–
Cn1cccc1 [1-Methylpyrrole],10.7%,–,–,–,–
CCCCCCCCCO [1-Nonanol],4.1%,–,–,–,–
C=CC(O)CCCCC (centres unmarked) [1-Octen-3-ol],24.0%,–,–,–,–
CCCS [1-Propanethiol],24.0%,–,–,–,–
C=CCCCCCCCCCCCC [1-Tetradecene],1.4%,–,–,–,–
C=CC(O)CCCC (centres unmarked) [1-hepten-3-ol],–,15%,10%,5%,"attraction of various mixtures and items (Aedes aegypti; default LA 200 μg, other chemicals 500 μL unless specified, containers as in the label): 7%"
C=CCCCCC [1-heptene],–,19%,5%,14%,Response (%) (Aedes aegypti; [3]): 4%; Response with Ace (%) (Aedes aegypti): 34%; Δ [(Resp with Ace) − Resp] (%) (Aedes aegypti): 30%; Response Avg % (Aedes aegypti; [4]): 5.0%
C=CCCCCCCC [1-nonene],–,8%,6%,2%,Response (%) (Aedes aegypti; [3]): 6%; Response with Ace (%) (Aedes aegypti): 54%; Δ [(Resp with Ace) − Resp] (%) (Aedes aegypti): 48%
C=CCCCCCC [1-octene],–,42%,38%,4%,Response (%) (Aedes aegypti; [3]): 38%; Response with Ace (%) (Aedes aegypti): 63%; Δ [(Resp with Ace) − Resp] (%) (Aedes aegypti): 25%
C=CC(=O)CC [1-penten-3-one],29.3%,23%,19%,4%,–
"CCCC(=O)C(C)=O [2,3-Hexanedione]",2.7%,–,–,–,–
"CC(=O)C(C)=O [2,3-butanedione]",1.4%,29%,37%,−8%,–
"CC(C)CC(=O)CC(C)C [2,6-Dimethyl-4-Heptanone]",18.7%,–,–,–,–
Nc1ccccn1 [2-Aminopyridine],0.0%,–,–,–,–
CCCCCCCCCCC(C)=O [2-Dodecanone],1.4%,–,–,–,–
CCCCC(=O)C(C)C [2-Methyl-3-Heptanone],34.7%,–,–,–,–
CCCCCC(=O)C(C)C [2-Methyl-3-Octanone],30.1%,–,–,–,–

SMILES,"% caught (Anopheles albimanus; single treatment, 500 μL)",Response with L-LA (%) (Aedes aegypti; [1]),Response (%) (Aedes aegypti; [2]),Δ [(Resp with LA) − Resp] (%) (Aedes aegypti),also measured
CC(C)S [2-Thiopropane],20.5%,–,–,–,–
CCCCCCCCCCCC(C)=O [2-Tridecanone],1.3%,–,–,–,–
CCCCCCCCCC(C)=O [2-Undecanone],4.2%,–,–,–,–
CCC(C)=O [2-butanone],47.9%,81%,28%,53%,–
CCCCCCCCC(C)=O [2-decanone],4.0%,24%,14%,10%,–
CCCCCC(C)=O [2-heptanone],10.4%,42%,17%,25%,–
CCCCC(C)=O [2-hexanone],4.3%,51%,3%,48%,Response Avg % (Aedes aegypti; [4]): 3.0%
CCC(=O)C(C)C [2-methyl-3-pentanone],5.3%,9%,1%,8%,Response Avg % (Aedes aegypti; [4]): 1.0%
Cc1ccco1 [2-methylfuran],35.5%,52%,15%,37%,caught in CK (check or control port) (Aedes aegypti; mosquitoes in control port): 30%
CCCCCCCC(C)=O [2-nonanone],27.0%,12%,8%,4%,–
CCCCCCC(C)=O [2-octanone],28.6%,16%,8%,8%,–
CCCC(C)=O [2-pentanone],10.8%,76%,8%,64%,–
CCCCCCCC(=O)CC [3-Decanone],9.3%,–,–,–,–
CCCCCC(=O)CC [3-Octanone],25.0%,–,–,–,–
C=CC(C)=O [3-buten-2-one],45.2%,39%,31%,8%,"caught in CK (check or control port), with L-LA (Aedes aegypti; compound 500 μL with L-lactic acid in treatment port, mosquitoes in control port): 51%; caught in CK (check or control port) (Aedes aegypti; mosquitoes in control port): 61%; Response Avg % (Aedes aegypti; [5]): 31.0%"
CCCCC(=O)CC [3-heptanone],11.3%,36%,12%,24%,–
CCCC(=O)CC [3-hexanone],8.3%,39%,1%,38%,Response Avg % (Aedes aegypti; [4]): 1.0%
CC=CC(C)=O [3-penten-2-one],–,49%,11%,38%,–
CCCCCCC(=O)CCC [4-Decanone],7.8%,–,–,–,–
CC=CC(=O)CC [4-Hexen-3-one],79.2%,–,–,–,–
CC(=O)CCC(C)C [5-Methyl-2-Hexanone],11.7%,–,–,–,–
"CC(=O)C=CC=C(C)C [6-Methyl-3,5-Heptadien-2-one]",18.7%,–,–,–,–

SMILES,"% caught (Anopheles albimanus; single treatment, 500 μL)",Response with L-LA (%) (Aedes aegypti; [1]),Response (%) (Aedes aegypti; [2]),Δ [(Resp with LA) − Resp] (%) (Aedes aegypti),also measured
CCCCCC(=O)CCCCC [6-Undecanone],3.9%,–,–,–,–
CC(=O)O [Acetic Acid],2.7%,–,–,–,–
CC(=O)CCC(C)=O [Acetonylacetone],0.0%,–,–,–,–
C=CCSSCC=C [Allyl Disulfide],0.0%,–,–,–,–
C[C@@H](O)C(=O)O [D-lactic acid],–,–,–,–,Response (%) (Aedes aegypti; [3]): 8%; Response with Ace (%) (Aedes aegypti): 82%; Δ [(Resp with Ace) − Resp] (%) (Aedes aegypti): 74%
C[S+](C)[O-] [Dimethylsulfoxide],–,–,–,–,Response Avg % (Aedes aegypti; [4]): 3.0%
CCS [Ethanethiol],40.0%,–,–,–,–
CCOC(C)=O [Ethyl Acetate],28.4%,–,–,–,–
C=O [Formaldehyde],–,–,–,–,Response Avg % (Aedes aegypti; [4]): 1.0%
O=CO [Formic Acid],–,–,–,–,% caught (Anopheles albimanus; in vivo): 0.0%
OCc1ccco1 [Furfuryl Alcohol],46.7%,–,–,–,–
O=CC(=O)O [Glyoxylic Acid],1.3%,–,–,–,–
c1ccc2[nH]ccc2c1 [Indole],1.3%,–,–,–,–
CC(C)C=O [Isobutanal],–,–,–,–,Response Avg % (Aedes aegypti; [5]): 13.0%
CC1=CC(=O)CC(C)(C)C1 [Isophorone],13.3%,–,–,–,–
CCCCCCCCCCCC(=O)O [Laurie Acid],1.3%,–,–,–,–
CO [MeOH],–,–,–,–,Response Avg % (Aedes aegypti; [5]): 10.0%
CC(=O)C=C(C)C [Mesityl Oxide],28.4%,–,–,–,–
CCCC(=O)OC [Methylbutyrate],55.8%,–,–,–,–
CCCCC [Pentane],2.7%,–,–,–,–
CC(C)=CC(=O)C=C(C)C [Phorone],50.6%,–,–,–,–
c1cnccn1 [Pyrazine],29.3%,–,–,–,–

SMILES,"% caught (Anopheles albimanus; single treatment, 500 μL)",Response with L-LA (%) (Aedes aegypti; [1]),Response (%) (Aedes aegypti; [2]),Δ [(Resp with LA) − Resp] (%) (Aedes aegypti),also measured
ClC(Cl)=C(Cl)Cl [Tetrachloroethylene],17.3%,–,–,–,–
c1ccsc1 [Thiophene],68.0%,–,–,–,–
N#CC(Cl)(Cl)Cl [Trichloroacetonitrile],65.3%,–,–,–,–
ClC=C(Cl)Cl [Trichloroethylene],57.9%,–,–,–,–
CC=O [acetaldehyde],–,29%,8%,21%,–
CC#N [acetonitrile],–,81%,27%,54%,–
BrC(Br)Br [bromoform],–,64%,27%,37%,–
"O=C=O [carbon dioxide, reference compound]",–,–,–,–,"Response Avg % (Aedes aegypti; CO2 alone, dose 0.5, Aedes aegypti attraction): 4.0%; Response with L-LA (%) (Aedes aegypti; carbon dioxide 5 ml/min with L-lactic acid): 68%"
CCOCC [diethyl ether],–,56%,25%,31%,–
C[S+](C)[O-] [dimethyl sulfoxide],–,30%,3%,27%,–
CCO [ethanol],–,57%,9%,48%,–
"C=O [formaldehyde (37%), formaldehyde]",–,5%,1%,4%,–
O=C(O)CO [glycolic acid],–,–,–,–,Response (%) (Aedes aegypti; [3]): 17%; Δ [(Resp with Ace) − Resp] (%) (Aedes aegypti): 64%
CC(C)C=O [isobutyraldehyde],–,32%,13%,19%,–
CO [methanol],–,66%,10%,56%,–
CCCCCCCCC=O [nonanal],–,–,–,10%,–
CCC(=O)O [propanoic acid],–,1%,3%,−2%,Response Avg % (Aedes aegypti; [4]): 3.0%
CCCCC/C=C/C(C)=O [t-3-Nonen-2-one],10.7%,–,–,–,–
O=C(O)C(O)C(O)C(=O)O (centres unmarked) [tartaric acid],–,–,–,–,Response (%) (Aedes aegypti; [3]): 9%; Response with Ace (%) (Aedes aegypti): 67%; Δ [(Resp with Ace) − Resp] (%) (Aedes aegypti): 58%
Cc1ccccc1 [toluene],–,59%,7%,52%,–

# — patent publication US7771713B2, “Chemical composition that attract arthropods” (priority 1999, dated 2010)
